In article PMC12921516 (ACS Bio & Med Chem Au, 2025):

Tests used:
[1] = test system: HepG2 cells; experiment: GC-MS untargeted metabolomic analysis; type: cell-based, human; settings: HepG2, 30 μM for 24 h, vs DMSO
Procedure: HepG2 cells are commonly utilized in metabolomics to study alterations in metabolic pathways, such as glycolysis and lipid metabolism, when exposed to various substances, − due to their ability to sustain liver-specific functions. To explore the metabolic changes induced by the 4b and 5g derivatives in HepG2 cells, an untargeted metabolomic analysis using GC-MS was carried out. […] This vitamin is essential for synthesizing coenzyme A (CoA), which in turn produces acetyl-CoA and succinyl-CoA, all of which are crucial for ATP production in the tricarboxylic acid (TCA) cycle. […] On the other hand, our findings indicate that 5g leads to a reduction in intracellular citrate levels, which may promote glycolysis and diminish gluconeogenesis similarly to metformin. Consequently, this could potentially lower hepatic glucose output. In summary, the increased intracellular levels of pantothenic acid and glycine, combined with the lowered citrate levels achieved by 5g, may play a significant role in improving insulin resistance and T2DM.
5 GC-MS-based untargeted metabolomic analysis of HepG2. (a) Heatmap analysis of HepG2 cells treated with DMSO (D, vehicle), 4b, or 5g for 24 h. (b) Principal Component Analysis (PCA) of untargeted metabolomic analysis of HepG2 treated with DMSO (vehicle), 4b, and 5g at 30 μM for 24 h (c). Statistically significant metabolites altered between the groups. Graphs were constructed using sum-normalized peak height values. Asterisks indicate statistical significance according to the Dunn test, with p-values denoted as follows: *p < 0.05, **p < 0.01. Created in BioRender. Matuz Mares, D. (2025) https://BioRender.com/hpj5plg.
The treated HepG2 cells were washed twice with 1 mL of PBS, and the liquid was entirely removed by pipetting. Posteriorly, 1 mL of ice-cold methanol containing 2.5 μL of internal standard, consisting of tridecanoic acid (0.1 mg/mL), was added, and the mixture was bath sonicated for 2 min. All the extract was recovered in microcentrifuge tubes, thoroughly vortexed, and then centrifuged for 10 min at 15,000 rpm at 4 °C. The supernatant was recovered and dried overnight using a SpeedVac (SPD 121P, Thermo Scientific). 40 μL of 20 mg/mL […] was added under nitrogen flow and incubated for 90 min at 37 °C. Posteriorly, the tube was centrifuged, and the supernatant was fully recovered and transferred to an insert tube with 40 μL of MBSTFA 1% TMCS, vortexed and incubated for 30 min. One μL of this extract was injected into a GC/MS (Agilent 5977A/7890B, Santa Clara, CA, USA) system with HP5-MS (Agilent) column with helium 99.9999% purity under the following parameters: splitless, flow 1 mL/min, electron ionization, with a range of 50–500 m/z. The chromatography consisted of a 1 min hold at 60 °C, followed by a ramp of 10 °C/min to 325 °C, and a final hold time of 10 min. Raw data was transformed with Agilent Mass Hunter to mz data, and deconvolution and alignment were performed with Mzmine2.0. Univariate and multivariate analyses were performed with Metaboanalyst 6.0 and GraphPad.

[2] = test system: insulin-resistant HepG2 cells; experiment: Western blotting, insulin-resistant HepG2 model; type: cell-based, human; settings: 24 h
Procedure: HepG2 cells were obtained directly from ATCC (HB-8065) and cultured in DMEM with low glucose, supplemented with fetal bovine serum, 100 U/mL penicillin G, and […] streptomycin. The media was freshly prepared and sterilized by filtration. Cells were maintained with a maximum of 10 passages before being discarded. For cell counting, the cells were washed twice with phosphate-buffered saline (PBS), trypsinized, and counted using a Neubauer chamber. For the insulin-resistant model, 75,000 cells per well were seeded in 6-well plates at 37 °C in 5% CO2 and cultured for 72 h. Subsequently, insulin (0.1 μM) was added to induce insulin resistance for 24 h. After this period, inhibitors were incubated for 24 h, followed by a final 30 min insulin stimulation (0.1 μM) before protein extraction. For the normal model, 75,000 cells per well were seeded in 6-well plates at 37 °C in 5% CO2 and cultured for 96 h. After that, the cells were incubated with the inhibitors for 24 h, followed by protein extraction.
Treated cells were washed twice with 1 mL of PBS, and proteins were extracted using 300 μL of a buffer solution containing 10% sodium deoxycholate in 10% TEAB, supplemented with a protease and phosphatase inhibitor cocktail. The extracts were heated at 80 °C for 5 min and dissociated by repeated passages through an insulin syringe. The cell extracts were centrifuged at 15,000 rpm for 15 min at 4 °C, and the supernatant was collected. Protein quantification was performed using the bicinchoninic acid assay, and aliquots were prepared for Western blotting. SDS-PAGE was conducted, and proteins were transferred onto a nitrocellulose membrane. The membrane was blocked with 10% skim milk in TBST for 1 h and incubated overnight with primary antibodies (1:400 dilution). Secondary antibodies conjugated to horseradish peroxidase were diluted 1:2,000, and the membranes were incubated for 1 h at room temperature. Blots were visualized using the ChemiDoc MP (Bio-Rad), and densitometric analysis was performed with ImageJ (U.S. National Institutes of Health). Statistical analyses were conducted using GraphPad Prism 8.0.
resistance model in HepG2 cells . a) Western blotting representative analysis (n=3) of PTP1B, p -AKT, p-IRS1 and p-STAT3 levels
of HepG2 cells treated with the compounds at 24 h of treatment. β-actin was employed as loading control. b) Densitometric
analysis of western blot images employing ImageJ analysis software. Bar graphs represent the mean ± SEM of normalized values.
The control levels were set to 1. Asterisks indicate statistical significance according to the Dunn test. p* < 0.05.
(1 picture or pasted object on this page, not shown here)

## CC1(C)c2[nH]c3ccc(OC(F)F)cc3c2C[C@]2(C)[C@H]3C(=O)C=C4[C@@H]5C[C@@](C)(C(=O)O)CC[C@]5(C)CC[C@@]4(C)[C@]3(C)CC[C@@H]12 [compound 4b, (20β)-5′-(Difluoromethoxy)-11-oxo-1′H-oleana-2,12-dieno[3,2-b]indol-29-oic Acid]
[1]
  glycine levels: not statistically significant
  intracellular fructose levels: not statistically significant
  intracellular glucose levels: not statistically significant
  intracellular palmitic acid levels: significantly reduce
  intracellular stearic acid levels: significantly reduce
  pantothenic acid levels: not statistically significant

## CC1(C)c2c(cnn2-c2ccc(S(N)(=O)=O)cc2)C[C@]2(C)[C@H]3C(=O)C=C4[C@@H]5C[C@@](C)(C(=O)O)CC[C@]5(C)CC[C@@]4(C)[C@]3(C)CC[C@@H]12 [compound 5g, (20β)-11-Oxo-2′-(4-sulfamoylphenyl)-2′H-oleana-2,12-dieno[3,2-c]pyrazol-29-oic Acid]
[2]
  p-IRS levels: tendency to increase p-IRS levels
[1]
  glycine levels: markedly increasing
  intracellular citrate levels: reduction
  intracellular fructose levels: significantly lowers
  intracellular glucose levels: significantly lowers
  pantothenic acid levels: significant increase
